# Laboratory results: patent US20060069132A1, “Azolecarboxamide herbicides” (priority 2004, published 2006)
# Where two headings read alike, the source gives them in different places.
# Assays:
# [1] = test system: redroot pigweed; assay: Test A pre-/postemergence herbicide test; assay type: in vivo, Amaranthus retroflexus; details: for pest or weed control at 500 g/ha / pest or weed control at 2000 g/ha: Amaranthus retroflexus, 240 h
# Procedure, shortened: (§1)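 Plants are held in greenhouse about ten days after treatment, then compared with untreated controls and scored 0 (no effect) to 100 (complete control). Preemergence dosing is a directed soil spray on sown sandy loam; postemergence dosing is spray to runoff at 2–10 cm height.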
# [2] = test system: velvetleaf; assay: Test A pre-/postemergence herbicide test; assay type: in vivo, Abutilon theophrasti; details: for pest or weed control at 500 g/ha / pest or weed control at 2000 g/ha: Abutilon theophrasti, 240 h
# Procedure, shortened: as §1
# [3] = test system: woolly cupgrass; assay: Test C pre-/postemergence herbicide test; assay type: in vivo, Eriochloa villosa; details: for Cupgrass, Woolly plant response rating / pest or weed control at 500 g/ha: 500 g ai/ha; for pest or weed control at 62 g/ha / pest or weed control at 125 g/ha / pest or weed control at 250 g/ha / pest or weed control at 500 g/ha: Eriochloa villosa, pre-emergence, 312 h, read-out: Plant response rating, Cupgrass, Woolly; for pest or weed control at 250 g/ha: scale 0-100
# Procedure, shortened: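 Greenhouse-grown plants were evaluated visually 12 to 14 days after treatment, with 100 meaning complete control and 0 no effect. Application was preemergence, or postemergence at 2 to 18 cm.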
# [4] = test system: bermudagrass; assay: Test E pre-/postemergence herbicide test; assay type: in vivo, Cynodon dactylon
# Procedure, shortened: (§2)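 Seeds were planted and treated preemergence with test chemicals in a non-phytotoxic solvent mixture containing surfactant; plants at 2 to 18 cm (1- to 4-leaf stage) received postemergence applications of the same formulation. After 12 to 14 days in a greenhouse, injury was visually rated against untreated controls on a 0 to 100 scale.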
# [5] = test system: large crabgrass; assay: Test E pre-/postemergence herbicide test; assay type: in vivo, Digitaria sanguinalis
# Procedure, shortened: as §2
# [6] = test system: Italian ryegrass; assay: Test E pre-/postemergence herbicide test; assay type: in vivo, Lolium multiflorum
# Procedure, shortened: as §2
# [7] = Postemergence, 500 g ai/ha, 0 to 100 scale, 0 no effect, 100 complete control
# [8] = Postemergence, 2000 g ai/ha, 0 to 100 scale, 0 no effect, 100 complete control
# [9] = Preemergence, 2000 g ai/ha, visual rating, 0 to 100 scale (0 no effect, 100 complete control)
# [10] = preemergence, 500 g ai/ha, visual injury, 0 to 100 scale (0 no effect, 100 complete control)
# [11] = postemergence, 125 g ai/ha, scale 0 to 100
# [12] = postemergence, 62 g ai/ha, scale 0 to 100
# [13] = Preemergence, 62 g ai/ha, scale 0 to 100
# [14] = Preemergence, 125 g ai/ha, scale 0 (no effect) to 100 (complete control)
# [15] = Preemergence, 250 g ai/ha, scale 0 (no effect) to 100 (complete control)
# [16] = Preemergence, 500 g ai/ha, scale 0 (no effect) to 100 (complete control)
# [17] = post-emergence, Postemergence, 500 g ai/ha, 0 to 100 scale, 0 no effect, 100 complete control, read-out: Pigweed plant response rating
# [18] = post-emergence, Postemergence, 2000 g ai/ha, 0 to 100 scale, 0 no effect, 100 complete control, read-out: Plant response rating, Pigweed
# [19] = pre-emergence, Preemergence, 2000 g ai/ha, visual rating, 0 to 100 scale (0 no effect, 100 complete control), read-out: Pigweed plant response rating
# [20] = pre-emergence, preemergence, 500 g ai/ha, visual injury, 0 to 100 scale (0 no effect, 100 complete control), read-out: Pigweed plant response rating
# [21] = post-emergence, Postemergence, 500 g ai/ha, 0 to 100 scale, 0 no effect, 100 complete control, read-out: Velvetleaf plant response rating
# [22] = post-emergence, Postemergence, 2000 g ai/ha, 0 to 100 scale, 0 no effect, 100 complete control, read-out: Plant response rating, Velvetleaf
# [23] = pre-emergence, Preemergence, 2000 g ai/ha, visual rating, 0 to 100 scale (0 no effect, 100 complete control), read-out: Velvetleaf plant response rating
# [24] = pre-emergence, preemergence, 500 g ai/ha, visual injury, 0 to 100 scale (0 no effect, 100 complete control), read-out: Velvetleaf plant response rating
# [25] = 62 g ai/ha, preemergence, scale 0 to 100
# [26] = 125 g ai/ha, scale 0 (no effect) to 100 (complete control), visual, 12 to 14 days
# [27] = scale 0 to 100 (0 no effect, 100 complete control), visual, 12 to 14 days
# [28] = Postemergence, 500 g ai/ha, scale 0 to 100
# [29] = Postemergence, 250 g ai/ha, scale 0 to 100
# [30] = Preemergence, 125 g ai/ha, scale 0 to 100
SMILES,"Plant response rating, Bermudagrass [4, 13]","Plant response rating, Bermudagrass [4, 15]","Plant response rating, Bermudagrass [4, 16]","Plant response rating, Crabgrass, Large [5, 13]","Plant response rating, Crabgrass, Large [5, 15]","Plant response rating, Crabgrass, Large [5, 16]","Plant response rating, Ryegrass, Italian [6, 13]","Plant response rating, Ryegrass, Italian [6, 15]","Plant response rating, Ryegrass, Italian [6, 16]","pest or weed control at 500 g/ha [1, 17]","pest or weed control at 2000 g/ha [1, 18]","pest or weed control at 2000 g/ha [1, 19]","pest or weed control at 500 g/ha [1, 20]","pest or weed control at 500 g/ha [2, 21]","pest or weed control at 2000 g/ha [2, 22]","pest or weed control at 2000 g/ha [2, 23]","pest or weed control at 500 g/ha [2, 24]","pest or weed control at 62 g/ha [3, 25]","pest or weed control at 125 g/ha [3, 26]",pest or weed control at 250 g/ha ([3]; 250 g ai/ha),other results
CCNC(=O)c1cccc(NC(=O)c2cc(C(C)(C)C)nn2CC)n1 [Compound 144],50,85,90,0,50,60,10,80,95,,,,,,,,,,,,"Pigweed plant response rating [1, 7]: 100; Plant response rating, Pigweed [1, 8]: 100; Pigweed plant response rating [1, 9]: 100; Pigweed plant response rating [1, 10]: 100; Velvetleaf plant response rating [2, 7]: 55; Plant response rating, Velvetleaf [2, 8]: 75; Velvetleaf plant response rating [2, 9]: 90; Velvetleaf plant response rating [2, 10]: 70; Plant response rating (0 = no effect, 100 = complete control), Cupgrass, Woolly ([3]; 62 g ai/ha, preemergence): 0; Plant response rating, Cupgrass, Woolly ([3]; 125 g ai/ha, scale 0 (no effect) to 100 (complete control), visual, 12 to 14 days, preemergence): 5; Plant response rating, Cupgrass, Woolly ([3]; 250 g ai/ha, scale 0 to 100 (0 no effect, 100 complete control), visual, 12 to 14 days, preemergence): 5; Cupgrass, Woolly plant response rating ([3]; Postemergence, scale 0 to 100): 50; Plant response rating, Cupgrass, Woolly ([3]; Postemergence, 250 g ai/ha, scale 0 to 100, 0 no effect, 100 complete control): 50; Cupgrass, Woolly plant response rating ([3]; Preemergence, scale 0 to 100, 0 no effect, 100 complete control): 70; Plant response rating, Cupgrass, Woolly [3, 11]: 30; Plant response rating, Cupgrass, Woolly [3, 12]: 0; Plant response rating, Bermudagrass [4, 14]: 80; Plant response rating, Crabgrass, Large [5, 14]: 40; Plant response rating, Ryegrass, Italian [6, 14]: 60"
"CCc1nn(C(C)(C)C)cc1C(=O)Nc1cc(C(=O)N(C)C)ccc1F [Compound 222, N-[5-[(dimethylamino)carbonyl]-2-fluorophenyl]-1-(1,1-dimethylethyl)-3-ethyl-1H-pyrazole-4-carboxamide]",80,100,100,70,100,100,50,100,100,75%,100%,90%,90%,80%,100%,100%,95%,20%,100%,100%,"pest or weed control at 500 g/ha [3, 27]: 100%; Plant response rating, Bermudagrass [4, 28]: 80; Plant response rating, Bermudagrass [4, 29]: 80; Plant response rating, Bermudagrass [4, 30]: 100; Plant response rating, Bermudagrass [4, 11]: 80; Plant response rating, Bermudagrass [4, 12]: 60; Plant response rating, Crabgrass, Large [5, 28]: 100; Plant response rating, Crabgrass, Large [5, 29]: 90; Plant response rating, Crabgrass, Large [5, 30]: 100; Plant response rating, Crabgrass, Large [5, 11]: 80; Plant response rating, Crabgrass, Large [5, 12]: 60; Plant response rating, Ryegrass, Italian [6, 28]: 85; Plant response rating, Ryegrass, Italian [6, 29]: 85; Plant response rating, Ryegrass, Italian [6, 30]: 100; Plant response rating, Ryegrass, Italian [6, 11]: 80; Plant response rating, Ryegrass, Italian [6, 12]: 50"
"CCN1N=C(C(C)(C)C)CC1C(=O)Nc1cc(C(=O)N(C)C)ccc1F (stereo not shown) [Compound 268, N-[5-[(dimethylamino)carbonyl]-2-fluorophenyl]-3-(1,1-dimethylethyl)-1-ethyl-4,5-dihydro-1H-pyrazole-5-carboxamide]",60,95,100,70,95,95,95,95,95,35%,85%,100%,100%,45%,45%,100%,95%,50%,70%,95%,"pest or weed control at 500 g/ha [3, 27]: 95%; Plant response rating, Bermudagrass [4, 30]: 90; Plant response rating, Crabgrass, Large [5, 30]: 80; Plant response rating, Ryegrass, Italian [6, 30]: 95"
